Test results from patent US20230151065A1, “MULTI-DISULFIDE-BOND LONG-CHAIN PEPTIDE WITH NEURO[…], PHARMACEUTICAL COMPOSITION AND APPLICATION” (priority 2018, published 2023).
Where no end group is shown, it is not given here.

Key:
[1] = test system: primary fetal rat hippocampal neurons; assay: Growth of hippocampal neurons, label-free real time cell analysis (RTCA); format: cell-based; details: ABPPk2 4, 20, 100 ng/ml
Description: (1) Primary culture of fetal rat hippocampal neurons: after a rat pregnant for 17 days was anesthetized, a fetal rat was taken out under sterile conditions; the brain of the fetal rat was taken out on ice; the hippocampus was carefully taken out under a dissecting microscope; and the blood vessel membranes were removed. 0.125% trypsin/EDTA was digested at 37° C. for 10 min, and the digestion was stopped by adding the DMEM complete medium containing 10% FBS. Cell debris were removed through centrifugal at 1000 rpm for 5 min; the DMEM complete medium was added to resuspend the cells; the cells were gently blown until a single cell suspension was formed; and the cells were inoculated at an appropriate density on a culture plate (dish) pre-coated with polylysine (PLL) and cultured at 37° C., 5% CO2 incubator. After 4 h, the cells were adhered to the wall; the DMEM complete medium was discarded and replaced with neurobasal medium containing different concentrations of ABPPk2 (the concentrations of ABPPk2 were 4 ng/ml, 20 ng/ml and 100 ng/ml); the neurobasal medium containing 10 ng/ml BDNF was used as the positive control group, and neurobasal was used as the negative control group. […]

[2] = test system: primary cultured SD fetal rat cortical neurons after OGD damage; assay: OGD damage of cortical neurons, observation under light microscope; format: cell-based; details: OGD 2 h, 24 h reoxygenation; ABPPk2 medium-dose (40 ng/ml) and high-dose (200 ng/ml) groups vs OGD damage group
Description: The suspension was filtered with a 400-mesh screen, centrifuged at 1000 rpm for 5 min, and blown to form the single cell suspension. DMEM high glucose complete medium (containing 10% fetal bovine serum) was inoculated in a culture dish or culture plate pre-coated with polylysine (PLL) to culture in 5% CO2 incubator with saturated humidity at 37° C. After the cells were cultured for 4 h to adhere to the wall, the cells were cultured with neuron culture medium (neurobasal+2% B27) for 3 d to observe the growth of neurons. The culture medium containing cytarabine (the final concentration of cytarabine was 2.5 μg/ml) was substituted with half quantity to culture for 3d to inhibit the growth of glial cells and miscellaneous cells to obtain purely cultured primary cortical nerve cells. The purity of the cortical neurons was identified by immunocytochemical staining as more than 90%.
After the cortical neurons were cultured to the 7th day, the original culture medium was sucked out, and the cells were rinsed twice with sugar-free DMEM basal medium, for 5 min each time. Each OGD damage group was added with DMEM sugar-free culture medium, placed in a Billups-Rothenberg anaerobic culture chamber, filled with 95% N2/5% CO2 to balance for 15 min, and sealed for 2 h to build an OGD model. […]

Cys-Leu-Glu-Ser-Gly-Thr-Ser-Cys-Ile-Pro-Gly-Ala-Gln-His-Asn-Cys-Cys-Ser-Gly-Val-Cys-Val-Pro-Ile-Val-Thr-Ile-Phe-Tyr-Gly-Val-Cys-Tyr (CLESGTSCIPGAQHNCCSGVCVPIVTIFYGVCY; disulfide (positions not given here); not fully specified (bridges); also: three disulfide bonds, pairing not given here) [ABPPk2, 33 amino acid polypeptide isolated from the extract of Achyranthes bidentata Blume, three pairs of disulfide bonds]
growth of hippocampal neurons (cell index, RTCA) [1]: can promote the growth of the hippocampal neurons and the extension of neurites | dead cells under light microscope [2]: the number of dead cells is significantly reduced
